Experimental data as given in the supplement of paper PMC11451515.

Columns and labels:
Assay in all cases: AUC of viability dose-response curve (% viability x log10 dose units); higher = less sensitive
Conditions in all cases: 48 h
SEM cells = system: SEM cells
Procedure, shortened: (§1)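 Leukemia cells adapted to each medium were seeded in 1536-well plates (500 or 1000 cells/well) and given library compounds in DMSO for 48 h at 37°C. The 11 threefold doses spanned 47 μM to 0.79 nM, and CellTiter-Glo One luminescence was normalised per plate to DMSO and cell-free wells before four-parameter log-logistic fitting on log10 dose. Area under the curve was integrated with the trapezoidal rule, scaling curves above full viability and removing curves that failed quality control.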

NOMO1 = system: NOMO1
Procedure, shortened: as §1

P12-Ichikawa = system: P12-Ichikawa
Procedure, shortened: as §1

[1] = RPMI 5 mM glucose + 10% dialyzed FBS

| SMILES | AUC of viability dose-response curve (SEM cells; HPLM + 10% dialyzed FBS) | AUC of viability dose-response curve (SEM cells; RPMI 5 mM glucose + 10% FBS) | AUC of viability dose-response curve (SEM cells; [1]) | AUC of viability dose-response curve (NOMO1; HPLM + 10% dialyzed FBS) | AUC of viability dose-response curve (NOMO1; RPMI 5 mM glucose + 10% FBS) | AUC of viability dose-response curve (NOMO1; [1]) | AUC of viability dose-response curve (P12-Ichikawa; HPLM + 10% dialyzed FBS) | AUC of viability dose-response curve (P12-Ichikawa; RPMI 5 mM glucose + 10% FBS) | AUC of viability dose-response curve (P12-Ichikawa; [1]) |
| --- | --- | --- | --- | --- | --- | --- | --- | --- | --- |
| CN(C)CCOc1cc(-c2cn[nH]c2)ccc1NC(=O)C1COc2ccccc2O1 (stereo not drawn) | 439 | 453 | 453 | 460 | 442 | 447 | 449 | 455 | 459 |
| COc1cc2c(cc1-c1c(C)noc1C)ncc1[nH]c(=O)n([C@H](C)c3ccccn3)c12 | 336 | 336 | 323 | 373 | 382 | 382 | 380 | 396 | 393 |
| CCN(CC)CC#CCOC(=O)C(O)(c1ccccc1)C1CCCCC1 (stereo not drawn) | 458 | 476 | 471 | 468 | 473 | 465 | 460 | 475 | 472 |
| CC(C)(C)c1cc(NC(=O)Nc2ccc(-c3cn4c(n3)sc3cc(OCCN5CCOCC5)ccc34)cc2)no1 | 188 | 232 | 176 | 432 | 394 | 435 | 468 | 409 | 442 |
| COC(=O)Nc1nc2cc(C(=O)c3cccs3)ccc2[nH]1 | 212 | 156 | 211 | 297 | 247 | 269 | 193 | 206 | 242 |
| CN(C)c1ccc(O)c2c1C[C@H]1C[C@H]3[C@H](N(C)C)C(O)=C(C(N)=O)C(=O)[C@@]3(O)C(O)=C1C2=O | 448 | 467 | 475 | 475 | 474 | 409 | 468 | 452 | 420 |
| CNC1CCC(N(Cc2cccc(-c3ccncc3)c2)C(=O)c2sc3ccccc3c2Cl)CC1 (stereo not drawn) | 310 | 267 | 279 | 330 | 326 | 381 | 319 | 326 | 302 |
| CC\1=C/C=C\C=[N]1[Pt](N)(Cl)Cl | 427 | 465 | 421 | 471 | 465 | 463 | 472 | 467 | 464 |
| OC1=CC=C(C=C1)\C2=C\OC3=C(C=CC(=C3)O)C2=O | 472 | 467 | 467 | 473 | 459 | 470 | 446 | 446 | 457 |
| O=NN(CCCl)C(=O)NC1CCCCC1 | 445 | 475 | 433 | 474 | 472 | 475 | 468 | 453 | 462 |
| CC1=CC=CC=C1N2\C(=N/C3=C(C(=CC=C3)C)C2=O)C[N]4C=NC5=C4N=CN=C5N | 344 | 308 | 344 | 369 | 427 | 406 | 439 | 412 | 419 |
| COc1nccc(-c2c(-c3ccc(F)cc3)ncn2C2CCNCC2)n1 | 460 | 375 | 454 |  |  |  | 452 | 455 | 453 |
| CCCCCCCCCCCCCCCCCCCCCCO | 444 | 460 | 447 | 458 | 444 | 456 | 445 | 461 | 447 |
| CC(=O)Nc1ccc(OC[C@](C)(O)C(=O)Nc2ccc([N+](=O)[O-])c(C(F)(F)F)c2)cc1 | 346 | 399 | 411 | 375 | 388 | 404 | 416 | 384 | 383 |
| CC1(C)Cc2c(-c3ccccc3)c(-c3ccc(Cl)cc3)c(CC(=O)O)n2C1 | 451 | 425 | 407 | 454 | 454 | 458 | 444 | 451 | 466 |
| CC(NC1=CC=CC=C1)C\2=C\C(=C/N3C(=O)\C=C(/N=C23)N4CCOCC4)C (stereo not drawn) | 475 | 451 | 447 | 466 | 451 | 462 | 470 | 456 | 466 |
| CC[C@H](CC#N)OC(=O)N[C@@H](C)c1cccc(NC(=O)Nc2ccc(-c3cnco3)c(OC)c2)c1 | 356 | 347 | 408 | 371 | 368 | 379 | 384 | 359 | 363 |
| O=C([O-])C(O)Cc1ccc(O)c(O)c1 (stereo not drawn) | 398 | 413 | 387 | 447 | 416 | 434 | 453 | 452 | 438 |
| c1cncc(CN2CCC(n3ncc4c(N5CCOCC5)nc(-c5ccc6[nH]ccc6c5)nc43)CC2)c1 | 376 | 370 | 352 | 374 | 372 | 362 | 426 | 351 | 357 |
| CCC1(C)CC(=O)NC1=O (stereo not drawn) | 465 | 462 | 460 | 437 | 421 | 450 | 458 | 459 | 467 |
| CC1CCC(C(=O)N(c2cc(C#CC(C)(C)C)sc2C(=O)O)C2CCC(O)CC2)CC1 (stereo not drawn) | 426 | 430 | 400 | 410 | 408 | 411 | 419 | 394 | 375 |
| C#Cc1cccc(Nc2ncnc3cc(OCCOC)c(OCCOC)cc23)c1 | 425 | 453 | 390 | 433 | 440 | 400 | 445 | 421 | 418 |
| C[C@H]1[C@H](NC(=O)/C(=N/OC(C)(C)C(=O)O)c2csc(N)n2)C(=O)N1[S+](=O)([O-])O | 468 | 471 | 450 | 455 | 475 | 445 | 470 | 471 | 467 |
| CC1=C(/C=C/C(C)=C/C=C/C(C)=C/C=C/C=C(C)/C=C/C=C(C)/C=C/C2=C(C)CCCC2(C)C)C(C)(C)CCC1 | 477 | 458 | 474 | 450 | 444 | 459 | 469 | 465 | 440 |

| SMILES | AUC of viability dose-response curve (SEM cells; HPLM + 10% dialyzed FBS) | AUC of viability dose-response curve (SEM cells; RPMI 5 mM glucose + 10% FBS) | AUC of viability dose-response curve (SEM cells; [1]) | AUC of viability dose-response curve (NOMO1; HPLM + 10% dialyzed FBS) | AUC of viability dose-response curve (NOMO1; RPMI 5 mM glucose + 10% FBS) | AUC of viability dose-response curve (NOMO1; [1]) | AUC of viability dose-response curve (P12-Ichikawa; HPLM + 10% dialyzed FBS) | AUC of viability dose-response curve (P12-Ichikawa; RPMI 5 mM glucose + 10% FBS) | AUC of viability dose-response curve (P12-Ichikawa; [1]) |
| --- | --- | --- | --- | --- | --- | --- | --- | --- | --- |
| CCC(C)SSc1ncc[nH]1 (stereo not drawn) | 377 | 361 | 323 | 416 | 426 | 432 | 441 | 418 | 393 |
| [NH2][Pt]1([NH2])[O]CC(=O)[O]1 | 455 | 464 | 407 | 462 | 429 | 432 | 467 | 463 | 439 |
| C[C@@H](NC1=CC=CC=C1C(O)=O)C/2=C/C(=C\N3C(=O)/C=C(\N=C23)N4CCOCC4)C |  |  |  | 338 | 331 | 336 | 407 | 359 | 370 |
| COC1=CC=CC=C1C2=CC=CC(=C2)C/3=C(O)/C4=CC(=C(Cl)C=C4NC3=O)C#N | 350 | 288 | 344 | 368 | 401 | 400 | 361 | 388 | 380 |
| CCCCCOC(=O)NC\1=N\C(=O)N(\C=C1F)[C@@H]2O[C@H](C)[C@@H](O)[C@H]2O | 468 | 466 | 469 | 413 | 434 | 458 | 460 | 443 | 442 |
| COc1cc2nc(N(C)CCCNC(=O)C3CCCO3)nc(N)c2cc1OC (stereo not drawn) | 358 | 355 | 378 | 336 | 297 | 331 | 416 | 431 | 384 |
| O=C(NCC[S+](=O)([O-])c1ccc(C(F)(F)F)cn1)c1ccc(Cl)cc1 | 448 | 450 | 446 | 457 | 461 | 463 | 470 | 455 | 452 |
| COc1ccc(C[C@@H](C)[C@@H](C)Cc2ccc(OC)c(OC)c2)cc1OC | 336 | 364 | 320 | 326 | 315 | 328 | 355 | 353 | 354 |
| Cc1ccc(NC(=O)c2ccc(CN3CCN(C)CC3)cc2)cc1Nc1nc(-c2cccnc2)cs1 | 238 | 255 | 223 | 417 | 468 | 440 | 417 | 405 | 406 |
| NC(=O)c1cnc(N[C@@H]2CCCC[C@@H]2N)nc1Nc1cccc(-n2nccn2)c1 | 419 | 420 | 428 | 457 | 457 | 453 | 468 | 462 | 471 |
| CC/1=C/C(=O)N(O)/C(=C1)C2CCCCC2 | 430 | 419 | 427 | 441 | 445 | 446 | 435 | 415 | 430 |
| Cc1ccccc1N1C(=O)c2cc([S+](N)(=O)[O-])c(Cl)cc2NC1C (stereo not drawn) | 448 | 413 | 462 |  |  |  | 449 | 460 | 450 |
| OC1=C(O)C2=C(\C=C/C(=O)O2)C=C1 | 423 | 430 | 436 | 454 | 469 | 465 | 470 | 466 | 467 |
| C[C@]\12CC[C@H](O)CC1=C/CC3C2CC[C@@]\4(C)C3C\C=C4[N]5C=NC6=C5C=CC=C6 (stereo partly drawn) | 428 | 455 | 466 | 461 | 454 | 461 | 469 | 465 | 470 |
| COC[C@H]1OC(=O)C2=COC3=C2[C@@]1(C)\C4=C(C5CCC(=O)[C@@]5(C)C[C@H]4OC(C)=O)/C3=O (stereo partly drawn) | 397 | 432 | 356 |  |  |  |  |  |  |
| CCc1cncnc1N1CCN(Cc2nc3cc(C(F)(F)F)ccc3[nH]2)CC1 | 429 | 425 | 426 | 462 | 425 | 426 | 445 | 437 | 451 |
| Cc1nc(NC(=O)N2CCC[C@H]2C(N)=O)sc1-c1ccnc(C(C)(C)C(F)(F)F)c1 | 384 | 431 | 400 |  |  |  | 424 | 386 | 399 |
| COc1c(C)cnc(Cn2cnc3c(Cl)nc(N)nc32)c1C | 306 | 293 | 306 | 322 | 324 | 323 | 376 | 334 | 340 |
| CC(=O)O.Cc1c(-c2ccc(O)cc2)n(Cc2ccc(OCCN3CCCCCC3)cc2)c2ccc(O)cc12 | 449 | 423 | 418 | 472 | 446 | 469 | 472 | 459 | 446 |
| COC1=CC2=NC=CC(=C2C=C1)OC3=CN=C(NC(=O)C/4=C(C)/N(CC(C)(C)O)N(C4=O)C5=CC=CC=C5)C=C3 |  |  |  | 430 | 431 | 411 | 425 | 414 | 420 |
| CC(=O)O[C@H]1C(=O)[C@]2(C)[C@@H](O)C[C@H]3OC[C@@]3(OC(C)=O)C2[C@H](OC(=O)C4=CC=CC=C4)[C@]5(O)C[C@H](OC(=O)[C@H](O)[C@@H](NC(=O)C6=CC=CC=C6)C7=CC=CC=C7)\C(=C1/C5(C)C)C (stereo partly drawn) |  |  |  |  |  |  | 148 | 143 | 195 |
| CC(C)[C@@H](N(CCCN)C(=O)C1=CC=C(C)C=C1)C/2=N/C3=CC(=CC=C3C(=O)N2CC4=CC=CC=C4)Cl |  |  |  | 123 | 82.4 | 106 | 61 | 66.9 | 97.9 |
| CC(C)OC(=O)OCOP(=O)(CO[C@H](C)Cn1cnc2c(N)ncnc21)OCOC(=O)OC(C)C.O=C(O)C=CC(=O)O |  |  |  | 446 | 456 | 448 |  |  |  |
| CN(CC#C)C/C1=C/C2=CC=CC=C2OC3=CC=CC=C13 |  |  |  | 401 | 400 | 407 | 417 | 407 | 400 |
